Data reported in article PMC10226046, “Prodrug Strategies for the Development of β-L-5-((E)-2-Bromovinyl)-1-((2S,4S)-2-(hydroxymethyl)-1,3-(dioxolane-4-yl))uracil (L-BHDU) against Varicella Zoster Virus (VZV)” (Journal of Medicinal Chemistry, 2023).
Where two headings read alike, the source gives them in different places.

What was measured:
VZV-ORF57-ΔTS = test: microbe, parasite or virus in culture; assay type: cell-based, Varicella zoster virus; conditions: Human alphaherpesvirus 3, ARPE-19
[1] = Oral pharmacokinetic absorption study in BALB/c mice (plasma, LC-MS/MS); assay type: in vivo; conditions: after oral 22.5 mg/kg POM-L-BHDU-MP, LC/MS
Experimental: A pharmacokinetic absorption study was performed in BALB/c mice (Charles River). A single equimolar dose of 22.5 mg/kg POM-L-BHDU-MP or 11.4 mg/kg L-BHDU was dissolved in Cremophor–dimethyl sulfoxide (DMSO)–saline (1:1:8) and administered by oral gavage to two groups of mice with equal numbers of male and female mice (N = 15 each male and female).
Plasma was separated from red blood cells and immediately frozen at −80 °C.
This animal protocol #282 was approved by the IACUC at SUNY Upstate Medical University, which has been fully accredited by AAALAC since 7/31/1999. This method was previously used to evaluate L-BHDU effects on 5-fluorouracil metabolism.[16] Briefly, a single equimolar dose of 22.5 mg/kg POM-L-BHDU-MP or 11.4 mg/kg L-BHDU was dissolved in Cremophor–DMSO–saline (1:1:8) and administered by oral gavage to two groups of BALB/c mice (Charles River) with equal numbers of male and female mice (N = 15 each male and female). Six untreated mice were used for blank controls and were labeled time 0. At 20, 40, 60, and 120 min, three mice from the POM-L-BHDU-MP group and three mice from the L-BHDU group were anesthetized with inhaled isoflurane and then exsanguinated by cardiac puncture. Blood samples were collected into a tube containing heparin. Plasma was separated from red blood cells by centrifugation at 10,000 rpm for 5 min. Plasma was transferred to a new tube and immediately frozen at −80 °C.
Plasma samples were thawed, and exactly 0.95 mL was removed for analysis. The internal standard azidothymidine was added to mouse plasma samples at a final concentration of 20 ng/mL. Proteins were precipitated from the plasma by adding 2× volumes of methanol, then the samples were clarified by centrifugation. The supernatants were dried using an N-EVAP 116 analytical nitrogen evaporator and then reconstituted with 50% methanol in water. LC-MS/MS was used to analyze the concentrations of POM-L-BHDU-MP, L-BHDU, and L-BHDU-MP. Calibration curves were made using BALB/c mouse plasma (Innovative Research, Inc. Novi MI) prior to analyzing the experimental samples.
The primary stock solutions for the calibration were prepared at 0.5 mg/mL for L-BHDU, 1 mg/mL for POM-L-BHDU-MP, and 1 mg/mL for L-BHDU-MP. The primary stock solutions were diluted to working solutions that were in turn used to spike the biological matrix of interest. L-BHDU calibration points were 100.0, 400.0, 800.0, 1000.0, 4000.0, 6000.0, 8000.0, 10,000.0, and 12,000.0 ng/mL. L-BHDU-MP calibration points were 100.0, 200.0, 400.0, 800.0, 1000.0, 2000.0, 4000.0, 6000.0, and 8000.0 ng/mL. The ISTD working solution of AZT was prepared at 20 ng/mL. The standard stock solutions were stored in −80 °C freezer until used. […] The samples were analyzed in a negative ESI mode. […]

[2] = Stability in gastric and intestinal juice; assay type: in vitro ADME; conditions: data not shown
VZV-ORF57-Luc [3] = conditions: for EC50: cell-free VZV-ORF57-Luc, ARPE-19 cells, 72 hpi, bioluminescence imaging
VZV-ORF57-Luc [4] = test: microbe, parasite or virus in culture; conditions: Human alphaherpesvirus 3, ARPE-19, cell-free VZV-ORF57-Luc, ARPE-19 cells, 72 hpi, bioluminescence imaging

Structure (SMILES): CC(C)(C)C(=O)OCOP(=O)(OCOC(=O)C(C)(C)C)OC[C@H]1OC[C@@H](n2cc(/C=C/Br)c(=O)[nH]c2=O)O1 [POM-L-BHDU-MP (41), Bis(POM) Prodrug of L-BHDU-MP]
- EC50 (VZV-ORF57-ΔTS): 1.2 nM
- L-BHDU-MP detected in plasma [1]: below the limit of quantitation
- stability in gastric and intestinal juice [2]: good stability
- SI (CC50/EC50) (VZV-ORF57-Luc [3]): >2809
- EC50 (VZV-ORF57-Luc [3]): 35.6 nM
- EC50 (VZV-ORF57-Luc [3]; listed as POM-L-BHDU-MP): 36 nM
- SI (CC50/EC50) (VZV-ORF57-Luc [3]; selectivity index = CC50/EC50, ARPE-19 cells): >2809
- SI (CC50/EC50) (VZV-ORF57-Luc [3]; selectivity index = CC50/EC50, ARPE-19 cells, listed as POM-L-BHDU-MP): > 2809
- EC50 (VZV-ORF57-Luc [4]): 35 nM
